Experimental findings from ChEMBL document CHEMBL2375344, “Identification of pyrrolo[2,3-g]indazoles as new Pim kinase inhibitors” (Bioorg Med Chem Lett, 2013) are described below.

In experiment [1] the target is T1, Serine/threonine-protein kinase pim-3 (Homo sapiens, UniProt Q86V86). The experiment can be described thus: Inhibition of human full length Pim-3 using RSRHSSYPAGT as substrate assessed as residual activity at 1 uM after 30 mins in presence of [gamma-33P]ATP; values are per cent of control.
The target in experiment [2] is Serine/threonine-protein kinase pim-2 (Homo sapiens) (UniProt Q9P1W9). The experiment can be described thus: Inhibition of human full length Pim-2 using RSRHSSYPAGT as substrate assessed as residual activity at 1 uM after 30 mins in presence of [gamma-33P]ATP; values are per cent of control.
Sequence of Serine/threonine-protein kinase pim-2 (Homo sapiens) (Q9P1W9 whole entry, looked up): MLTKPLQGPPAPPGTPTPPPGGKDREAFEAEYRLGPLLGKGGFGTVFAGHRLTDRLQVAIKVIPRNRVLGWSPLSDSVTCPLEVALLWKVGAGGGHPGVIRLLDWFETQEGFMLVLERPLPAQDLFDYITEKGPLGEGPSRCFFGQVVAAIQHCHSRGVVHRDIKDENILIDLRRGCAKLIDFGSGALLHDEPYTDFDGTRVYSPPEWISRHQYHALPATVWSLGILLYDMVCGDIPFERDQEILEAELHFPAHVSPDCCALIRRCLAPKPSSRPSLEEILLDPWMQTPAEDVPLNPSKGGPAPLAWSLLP
The target of experiment [3] is T2, Serine/threonine-protein kinase pim-1 (Homo sapiens, UniProt P11309). Nature of the experiment: Inhibition of human full length Pim-1 using RSRHSSYPAGT as substrate assessed as residual activity at 1 uM after 30 mins in presence of [gamma-33P]ATP; values are per cent of control.
Target sequence in this assay (P11309 whole entry, looked up): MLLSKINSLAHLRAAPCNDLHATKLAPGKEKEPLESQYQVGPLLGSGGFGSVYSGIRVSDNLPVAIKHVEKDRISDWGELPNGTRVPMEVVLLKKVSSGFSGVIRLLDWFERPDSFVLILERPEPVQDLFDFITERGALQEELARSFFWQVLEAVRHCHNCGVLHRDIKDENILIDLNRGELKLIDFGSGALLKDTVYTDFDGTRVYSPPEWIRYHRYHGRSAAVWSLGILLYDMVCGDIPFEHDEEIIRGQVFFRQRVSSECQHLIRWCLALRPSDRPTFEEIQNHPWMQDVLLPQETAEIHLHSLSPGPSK
Experiment [4] addresses T1, Serine/threonine-protein kinase pim-3. The experiment can be described thus: Inhibition of human full length Pim-3 using RSRHSSYPAGT as substrate assessed as residual activity at 10 uM after 30 mins in presence of [gamma-33P]ATP; values are per cent of control.
Experiment [5] has as its target Serine/threonine-protein kinase pim-2 (Homo sapiens) (UniProt Q9P1W9). The experiment can be described thus: Inhibition of human full length Pim-2 using RSRHSSYPAGT as substrate assessed as residual activity at 10 uM after 30 mins in presence of [gamma-33P]ATP; values are per cent of control.
For experiment [6], the target named is T2, Serine/threonine-protein kinase pim-1. Nature of the experiment: Inhibition of human full length Pim-1 using RSRHSSYPAGT as substrate assessed as residual activity at 10 uM after 30 mins in presence of [gamma-33P]ATP; values are per cent of control.
Target sequence in this assay (P11309 whole entry, looked up): as the sequence (P11309 whole entry, looked up) above
For experiment [7], the target named is T1, Serine/threonine-protein kinase pim-3. The experiment can be described thus: Inhibition of human full length Pim-3 using RSRHSSYPAGT as substrate assessed as residual activity after 30 mins in presence of [gamma-33P]ATP.
Experiment [8] has as its target T2, Serine/threonine-protein kinase pim-1. The experiment can be described thus: Inhibition of human full length Pim-1 using RSRHSSYPAGT as substrate assessed as residual activity after 30 mins in presence of [gamma-33P]ATP.
Target sequence in this assay (P11309 whole entry): as the sequence (P11309 whole entry, looked up) above

Each structure is given as a SMILES string.

As usually defined, the residual activity is the signal under treatment as a percentage of the control signal. One may read the IC50 as the point on the concentration scale where inhibition reaches its midpoint.

As to `CCCc1c[nH]c2c(N)cc3cn[nH]c3c12`, the residual activity in experiment [1] was determined as 79%; in experiment [2], 90%; in experiment [3], 104%; in experiment [4], 39%; in experiment [5] it was 93%; in experiment [6], 57%.
As for `Nc1cc2cn[nH]c2c2cc[nH]c12`, the IC50 in experiment [7] is 33 nM; in experiment [8], 460 nM. The residual activity in experiment [1] was 20%; in experiment [2], 99%; in experiment [3] it was 63%; in experiment [4] it was 4%; in experiment [5], 104%; in experiment [6], 17%.
For the molecule `C[Si](C)(C)c1cc2c([nH]1)c(N)cc1cn[nH]c12`, the residual activity came out at 67% in experiment [1]; 93% in experiment [2]; 94% in experiment [3]; 24% in experiment [4]; 111% in experiment [5]; 52% in experiment [6].
Consider `Cc1c[nH]c2c(N)cc3cn[nH]c3c12`, for which the residual activity came out at 65% in experiment [1]; 105% in experiment [2]; 91% in experiment [3]; 17% in experiment [4]; 88% in experiment [5]; 63% in experiment [6].
With `Cc1c[nH]c2c([N+](=O)[O-])cc3cn[nH]c3c12`, the residual activity in experiment [1] was found to be 77%; in experiment [2], 99%; in experiment [3], 68%; in experiment [4] it was 26%; in experiment [5], 61%; in experiment [6] it was 26%.
As to `Nc1cc2cn[nH]c2c2c(-c3ccccc3)c[nH]c12`, the residual activity in experiment [1] stood at 68%; in experiment [2], 103%; in experiment [3] it was 111%; in experiment [4], 26%; in experiment [5], 92%; in experiment [6], 51%.
For the molecule `O=[N+]([O-])c1cc2cn[nH]c2c2c(-c3ccccc3)c[nH]c12`, the IC50 was 530 nM in experiment [7] and 1000 nM in experiment [8]. Further, the residual activity in experiment [1] stood at 38%; in experiment [2] it was 82%; in experiment [3], 52%; in experiment [4], 21%; in experiment [5] it was 70%; in experiment [6] it was 28%.
Turning to `CCCc1c[nH]c2c([N+](=O)[O-])cc3cn[nH]c3c12`, the IC50 in experiment [7] is 260 nM. Besides, the residual activity came out at 24% in experiment [1]; 66% in experiment [2]; 78% in experiment [3]; 6% in experiment [4]; 27% in experiment [5]; 54% in experiment [6].
Turning to `CCc1[nH]c2c([N+](=O)[O-])cc3cn[nH]c3c2c1-c1ccccc1`, the IC50 in experiment [7] worked out at 119 nM; in experiment [8], 230 nM. The residual activity in experiment [1] amounted to 31%; in experiment [2], 77%; in experiment [3] it was 43%; in experiment [4], 36%; in experiment [5] it was 84%; in experiment [6] it was 51%.
For `CCCc1c(C(=O)OC)[nH]c2c([N+](=O)[O-])cc3cn[nH]c3c12`, in experiment [7], the IC50 came out at 546 nM. For the same molecule, the residual activity is 50% in experiment [1]; 113% in experiment [2]; 110% in experiment [3]; 24% in experiment [4]; 85% in experiment [5]; 39% in experiment [6].
As to `CCOCc1c[nH]c2c([N+](=O)[O-])cc3cn[nH]c3c12`, the residual activity is 71% in experiment [1]; 109% in experiment [2]; 82% in experiment [3]; 19% in experiment [4]; 63% in experiment [5]; 26% in experiment [6].
Take `O=Cc1c[nH]c2c([N+](=O)[O-])cc3cn[nH]c3c12`: the residual activity in experiment [1] turned out to be 76%; in experiment [2], 117%; in experiment [3] it was 97%; in experiment [4] it was 25%; in experiment [5], 70%; in experiment [6], 27%.
`CCOC(=O)c1[nH]c2c([N+](=O)[O-])cc3cn[nH]c3c2c1C`: the residual activity worked out at 72% in experiment [1]; 105% in experiment [2]; 78% in experiment [3]; 47% in experiment [4]; 97% in experiment [5]; 72% in experiment [6].
Regarding `C[Si](C)(C)c1cc2c([nH]1)c([N+](=O)[O-])cc1cn[nH]c12`, the IC50 in experiment [7] worked out at 470 nM. For the same molecule, the residual activity amounted to 51% in experiment [1]; 103% in experiment [2]; 63% in experiment [3]; 9% in experiment [4]; 64% in experiment [5]; 17% in experiment [6].
`CCOC(=O)c1[nH]c2c([N+](=O)[O-])cc3cn[nH]c3c2c1-c1ccccc1`: the residual activity came out at 73% in experiment [1]; 92% in experiment [2]; 86% in experiment [3]; 90% in experiment [4]; 113% in experiment [5]; 55% in experiment [6].
In the case of `CCOC(=O)c1[nH]c2c(N)cc3cn[nH]c3c2c1-c1ccccc1`, the residual activity in experiment [1] is 72%; in experiment [2] it was 101%; in experiment [3] it was 74%; in experiment [4], 20%; in experiment [5], 74%; in experiment [6] it was 29%.
Turning to `CCc1[nH]c2c(N)cc3cn[nH]c3c2c1-c1ccccc1`, the residual activity in experiment [1] worked out at 72%; in experiment [2], 91%; in experiment [3], 92%; in experiment [4], 23%; in experiment [5], 75%; in experiment [6], 44%.
As to `CCOC(=O)c1[nH]c2c(N)cc3cn[nH]c3c2c1C`, the residual activity in experiment [1] is 93%; in experiment [2], 102%; in experiment [3], 93%; in experiment [4] it was 26%; in experiment [5], 97%; in experiment [6], 61%.
For the molecule `O=[N+]([O-])c1cc2cn[nH]c2c2cc[nH]c12`, the residual activity in experiment [1] was 78%; in experiment [2], 92%; in experiment [3] it was 102%; in experiment [4], 18%; in experiment [5] it was 80%; in experiment [6], 30%.
With `CCCc1c(C(=O)OC)[nH]c2c(N)cc3cn[nH]c3c12`, the residual activity was found to be 82% in experiment [1]; 105% in experiment [2]; 71% in experiment [3]; 12% in experiment [4]; 78% in experiment [5]; 26% in experiment [6].
